Assay results published in patent US20240158348A1, “HERBICIDAL CYCLIC AMIDES N-SUBSTITUTED WITH A HALOALKYLSULFONYLANILIDE GROUP” (FMC Corporation, priority 2021, published 2024).

Columns and labels:
Type in all cases: in vivo
kochia (Bassia scoparia) [1] = assay: Test C postemergence, kochia; conditions: for Kochia plant response rating: visual injury, 0 to 100 scale (0 no effect, 100 complete control); for Plant response rating (0 to 100 scale), Kochia: 0 is no effect, 100 is complete control
How it was run: (§1)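 Plants grown in a sand and loam soil blend received the formulated test chemicals either as a preemergence soil-directed spray or postemergence at 2 to 10 cm height. After 10 or 12 greenhouse days, injury was assessed visually, with 100 meaning complete control.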

kochia (Bassia scoparia) [2] = assay: Test C preemergence, kochia; conditions: 0 is no effect, 100 is complete control
How it was run: as §1

[3] = tested on: blackgrass (Alopecurus myosuroides); assay: Test C postemergence, blackgrass; conditions: visual injury, 0 to 100 scale (0 no effect, 100 complete control)
How it was run: as §1

rice (Oryza sativa) = assay: Test D flooded paddy test, rice; design: key: 0 = no effect, 100 = complete control; conditions: 250 g ai/ha, Flood; applied to paddy water at 2-leaf stage; visual rating after 13 days; scale 0 (no effect) to 100 (complete control)
How it was run: (§2)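 Pots holding 2-leaf-stage plants were flooded 3 cm deep and dosed via the water, which stayed at that level. After 13 greenhouse days, injury was scored visually against untreated controls, 0 (none) to 100 (complete control); a dash marks no test result.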

[4] = tested on: galium (catchweed bedstraw, Galium aparine); assay: Test C postemergence, galium; conditions: for Galium plant response rating: 31 g ai/ha Postemergence, visual injury, 0 to 100 scale (0 no effect, 100 complete control); for Plant response rating (0 to 100 scale), Galium: 125 g ai/ha Postemergence, 0 is no effect, 100 is complete control
[5] = tested on: wheat (Triticum aestivum); assay: Test C preemergence, wheat; conditions: 0 is no effect, 100 is complete control
[6] = tested on: ryegrass, Italian (Italian ryegrass, Lolium multiflorum); assay: Test C postemergence, Italian ryegrass; conditions: for Ryegrass, Italian plant response rating: visual injury, 0 to 100 scale (0 no effect, 100 complete control); for Plant response rating (0 to 100 scale), Ryegrass, Italian: 0 is no effect, 100 is complete control
How it was run: as §1

[7] = tested on: sedge, umbrella (small-flower umbrella sedge, Cyperus difformis); assay: Test D flooded paddy test, umbrella sedge; design: key: 0 = no effect, 100 = complete control; conditions: 250 g ai/ha, Flood; applied to paddy water at 2-leaf stage; visual rating after 13 days; scale 0 (no effect) to 100 (complete control)
How it was run: as §2

corn (Zea mays) = assay: Test C preemergence, corn; conditions: 0 is no effect, 100 is complete control
How it was run: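 Injury is given as a visual 0–100 rating, where 100 is complete control, made against untreated plants after 10 or 12 greenhouse days. Galium received a postemergence spray at the one- to two-leaf stage (2–10 cm tall). Corn, ragweed and goosegrass seeds in loam-sand blend received a directed preemergence soil spray; test chemicals were formulated in a surfactant-containing non-phytotoxic solvent.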

SMILES	Kochia plant response rating (kochia (Bassia scoparia) [1]; 31 g ai/ha Postemergence)	Plant response rating (0 to 100 scale), Kochia (kochia (Bassia scoparia) [1]; 125 g ai/ha Postemergence)	Plant response rating (0 to 100 scale), Kochia (kochia (Bassia scoparia) [2]; 31 g ai/ha Preemergence)	Plant response rating (0 to 100 scale), Kochia (kochia (Bassia scoparia) [2]; 125 g ai/ha Preemergence)	Blackgrass plant response rating ([3]; 31 g ai/ha Postemergence)	Plant response rating, Rice (rice (Oryza sativa))	Galium plant response rating [4]	Plant response rating (0 to 100 scale), Galium [4]	Plant response rating (0 to 100 scale), Wheat ([5]; 31 g ai/ha Preemergence)	Plant response rating (0 to 100 scale), Wheat ([5]; 125 g ai/ha Preemergence)	Ryegrass, Italian plant response rating ([6]; 31 g ai/ha Postemergence)	Plant response rating (0 to 100 scale), Ryegrass, Italian ([6]; 125 g ai/ha Postemergence)	Plant response rating, Sedge, Umbrella [7]	Plant response rating (0 to 100 scale), Corn (corn (Zea mays); 31 g ai/ha Preemergence)	Plant response rating (0 to 100 scale), Corn (corn (Zea mays); 125 g ai/ha Preemergence)	Kochia plant response rating (kochia (Bassia scoparia) [1]; 125 g ai/ha Postemergence)	Blackgrass plant response rating ([3]; 125 g ai/ha Postemergence)	Ryegrass, Italian plant response rating ([6]; 125 g ai/ha Postemergence)
Cc1cc(C)c(N2CC/C(=N\O)C2=O)cc1NS(=O)(=O)C(F)(F)F [Compound 10, 1,1,1-trifluoro-N-[5-[3-(hydroxyimino)-2-oxo-1-pyrrolidinyl]-2,4-dimethylphenyl]methanesulfonamide]	60	90	90	100	60	0	100	100	90	100	80	80	80	30	90	–	–	–
C=CCO/N=C1\CCN(c2cc(NS(=O)(=O)C(F)(F)F)c(C)cc2C)C1=O [Compound 11]	40	90	80	100	40	45	80	100	90	100	0	30	100	50	100	–	–	–
CCO/N=C1\CCN(c2cc(NS(=O)(=O)C(F)(F)F)c(C)cc2C)C1=O [Compound 12, N-[5-[3-(ethoxyimino)-2-oxo-1-pyrrolidinyl]-2,4-dimethylphenyl]-1,1,1-trifluoromethanesulfonamide]	90	90	100	100	80	40	100	100	90	100	70	80	100	70	100	–	–	–
C#CCO/N=C1\CCN(c2cc(NS(=O)(=O)C(F)(F)F)c(C)cc2C)C1=O [Compound 13, N-[2,4-dimethyl-5-[2-oxo-3-[(2-propyn-1-yloxy)imino]-1-pyrrolidinyl]phenyl]-1,1,1-trifluoromethanesulfonamide]	90	90	100	100	80	35	100	100	90	100	60	60	100	40	100	–	–	–
Cc1cc(C)c(N2CCC(O)C2=O)cc1NS(=O)(=O)C(F)(F)F (centres unmarked) [Compound 14]	50	70	50	100	10	25	100	100	50	100	60	100	35	10	100	–	–	–
COC(=O)N(c1cc(N2CCC(OC3CC3)C2=O)c(C)cc1C)S(=O)(=O)C(F)(F)F (centres unmarked) [Compound 16]	20	10	0	0	0	0	50	50	0	0	0	0	0	0	0	–	–	–
Cc1cc(C)c(N(C(=O)OC(C)C)S(=O)(=O)C(F)(F)F)cc1N1CCC(OC2CC2)C1=O (centres unmarked) [Compound 18]	20	70	0	60	0	0	10	70	0	0	0	0	0	0	0	–	–	–
Cc1cc(C)c(N(COC(=O)C(C)(C)C)S(=O)(=O)C(F)(F)F)cc1N1CCC(OCC2CC2)C1=O (centres unmarked) [Compound 53]	20	–	0	50	20	25	–	–	60	90	0	–	98	0	50	50	60	70
Cc1cc(C)c(N(COC(=O)C(C)(C)C)S(=O)(=O)C(F)(F)F)cc1N1CCC(OCC2CC2(F)F)C1=O (centres unmarked) [Compound 54]	30	–	0	30	30	0	–	–	0	80	60	–	98	0	30	50	90	70
Cc1cc(C)c(N(COC(=O)C(C)(C)C)S(=O)(=O)C(F)(F)F)cc1N1CCC(OCC2CC(F)(F)C2)C1=O (centres unmarked) [Compound 55]	0	–	0	10	0	15	–	–	10	40	0	–	95	0	10	20	40	60
Cc1cc(C)c(N(COC(=O)C(C)(C)C)S(=O)(=O)C(F)(F)F)cc1N1CCC(OCC2CCC2)C1=O (centres unmarked) [Compound 56]	0	–	0	70	0	0	–	–	0	0	0	–	95	0	10	30	20	60
